The record followed here is article PMC4626217 (Bioorganic & medicinal chemistry, 2015).

Experiment [1] deals with 797 NUT midline carcinoma cell line. The experiment is described as follows: 797 cell viability. The class given is cell-based. The note with it: 48 hours incubation, ATPLite; ± standard error of LogIC50.
In experiment [2] the test system is 10326 NUT midline carcinoma cell line. The experiment is described as follows: 10326 cell viability. Type of experiment: cell-based. The following applies: 48 hours incubation, ATPLite; ± standard error of LogIC50.
The subject of another experiment is HDACs 1–3. The experiment is described as follows: HDAC biochemical assay, text summary over HDACs 1–3. Also on record: species or system human. The note with it: summary of Table 1; for IC50: read-out: IC50 for HDACs 1–3; for IC50 range in words: HDACs 1–3 where stated, unit inside the printed words.
Another experiment addresses HDAC1 (Homo sapiens, UniProt Q13547). The experiment is described as follows: HDAC biochemical assay. The note with it: relative to compound 6.

Sequence of HDAC1 (Q13547 whole entry): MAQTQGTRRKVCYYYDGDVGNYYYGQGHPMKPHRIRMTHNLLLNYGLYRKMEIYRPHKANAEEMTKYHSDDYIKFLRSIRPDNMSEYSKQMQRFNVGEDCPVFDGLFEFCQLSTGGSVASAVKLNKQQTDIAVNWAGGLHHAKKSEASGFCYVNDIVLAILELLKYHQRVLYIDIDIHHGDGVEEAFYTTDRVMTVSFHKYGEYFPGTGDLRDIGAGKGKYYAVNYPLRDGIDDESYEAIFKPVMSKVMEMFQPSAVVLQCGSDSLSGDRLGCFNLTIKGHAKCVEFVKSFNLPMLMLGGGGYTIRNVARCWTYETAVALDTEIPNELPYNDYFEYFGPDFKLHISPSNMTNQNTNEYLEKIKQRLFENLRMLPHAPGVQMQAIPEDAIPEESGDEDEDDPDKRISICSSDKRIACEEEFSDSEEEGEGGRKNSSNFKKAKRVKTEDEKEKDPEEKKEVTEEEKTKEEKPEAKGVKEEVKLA

Consider `CC(C)[C@@H]1NC(=O)[C@]2(C)CSC(=N2)c2csc(n2)CNC(=O)C[C@@H](/C=C/CCS)NC1=O` [Compound 4, Largazole peptide isostere thiol], for which the “797 LogIC50” value in experiment [1] is −5.761 ± 0.05449. Further, the “10326 LogIC50” value in experiment [2] is reported as −4.923 ± 0.9900. In the experiment on HDACs 1–3, the IC50 was under 25 nM.
As for `CC(C)[C@@H]1NC(=O)[C@]2(C)CSC(=N2)c2ccnc(c2)CNC(=O)C[C@@H](/C=C/CCS)NC1=O` [Compound 12, Peptide isostere pyridyl “OUT” thiol], in the experiment on HDACs 1–3, the IC50 was under 25 nM and the “IC50 range in words” value was “double-digit nM range”.
`CC(C)[C@@H]1NC(=O)[C@]2(C)CSC(=N2)c2csc(n2)CNC(=O)C[C@@H](/C=C/CCS)OC1=O` [Compound 2, Largazole thiol, reference compound]: the concentration for half-maximal inhibition (IC50) in the experiment with HDACs 1–3 is under 25 nM.
`CC(C)[C@@H]1NC(=O)[C@]2(C)CSC(=N2)c2cccc(n2)CNC(=O)C[C@@H](/C=C/CCS)NC1=O` [Compound 10, Peptide isostere pyridyl “IN” thiol]: the “fold decrease in activity in HDAC1 in going from 6 to its amide isostere” value at HDAC1 is listed as 16 fold. For the same molecule, the “IC50 range in words” value in the experiment on HDACs 1–3 was “double-digit nM range”.
As to `CC(C)[C@@H]1NC(=O)[C@]2(C)CSC(=N2)c2ccnc(c2)CNC(=O)C[C@@H](/C=C/CCS)OC1=O` [Compound 8, Depsipeptide pyridyl “OUT” thiol], in the experiment with HDACs 1–3, the IC50 was under 25 nM and the “IC50 range in words” value is recorded as “single digit nM range”.
The like results for `CC(C)[C@@H]1NC(=O)[C@]2(C)CSC(=N2)c2cccc(n2)CNC(=O)C[C@@H](/C=C/CCS)OC1=O` [Compound 6, Depsipeptide pyridyl “IN” thiol] were, in that order, under 25 nM and “single digit nM range”.
